What all share (assay type): in vivo, SD rat
One series deals with MCP-1. In words: Suppression of expression of MCP-1 at cerebral artery bifurcation (immunostaining). Conditions: vs group without drug, FIG. 4.
The next series deals with macrophages. In words: Macrophages infiltrating cerebral aneurysm walls in the enlargement study. The settings on record: 0.1 mg/5 mL suspension, forced oral, once a day from Day 7; 49 days after surgery (Week 7); FIG. 10. How it is done: Immunostaining of macrophages (F4/80-positive cells) was conducted on the prepared section as described below. As a primary antibody solution, a solution in which a rat anti-F4/80 antibody [BM8](AB16911: Abcam) was diluted with a phosphate buffer by 100 times was prepared. As a secondary antibody solution, a solution in which an alexa 488-conjugated donkey anti-rat IgG antibody (Invitrogen) was diluted with a phosphate buffer by 100 times was prepared. The section was allowed to react in the primary antibody solution at 4° C. for 16 hours, washed with a phosphate buffer, and thereafter, was allowed to react in the secondary antibody solution at room temperature for 1 hour. […] In addition, macrophages (F4/80-positive cells) stained green at the peripheries of nuclei (blue) were observed therein (in monochrome FIG. 3A, portions with a higher degree of whiteness). Under the observation with a confocal microscope, the number of macrophages was counted in an area of 100 μm square centered around the cerebrovascular bifurcation where cerebral aneurysm developed. The measurement was conducted on five rats and the mean value was calculated. […] In addition, 49 days after surgery (Week 7), the number of macrophages infiltrating cerebral aneurysm walls was counted according to the procedure of Reference Example 4 under the observation with a confocal microscope.

Another series has as its system cerebral aneurysm model. In words: Inhibitory effect on formation of cerebral aneurysm in cerebral aneurysm model (EvG staining, size of aneurysm). Conditions: 0.03 mg/5 mL or 0.1 mg/5 mL suspension, 5 mL/kg, forced oral, once a day, Day 1 to Day 27; Day 28; FIG. 5. Here is the method: A rat model of cerebral aneurysm was prepared according to the method disclosed on the literature by Hashimoto et al. (Surgical Neurology 1978, Vol. 10, p. 3-8). Namely, 50 mg/kg of pentobarbital was administrated intraperitoneally to a 7-week-old male SD rat, and the left common carotid artery and the left renal artery were ligated by using 10-0 nylon thread under anesthesia (this is referred to as the surgery for inducing cerebral aneurysm). From the day after surgery (Day 1), the rat was reared with being fed a high-salt diet. During a rearing period, the rat was given free access to water. Forced oral administration of 0.03 mg/5 mL or 0.1 mg/5 mL of the suspension of Compound 1 to the cerebral aneurysm model was conducted once a day at a dose of 5 mL/kg from the day after surgery, i.e., 1 day after surgery (Day 1) to 27 days after surgery (Day 27). It should be noted that forced oral administration of the 0.5% MC solution (0 mg/5 mL of the suspension of Compound 1) to the cerebral aneurysm model was conducted once a day at a dose of 5 mL/kg. The group of these rats was defined as a vehicle group. 28 Days after surgery (Day 28), the right olfactory artery/anterior cerebral artery bifurcation containing cerebral aneurysm was extirpated and was fixed with 4% paraformaldehyde, and then the solution was replaced with a 30% sucrose solution, and thereafter, the extirpated bifurcation was frozen to prepare a specimen of a frozen section having a thickness of 5 μm, by similar procedures to the steps 1) and 2) of the method of Reference Example 2. This specimen was subjected to EvG staining and the formation of cerebral aneurysm was confirmed. The size of cerebral aneurysm was measured and evaluation was conducted. The maximum diameter (Maximum) represents the maximum distance between internal elastic lamina disruption sites observed by EvG staining, the height “Height” represents the maximum value of height defined as the length of the perpendicular line drawn from the line connecting the two ends of internal elastic lamina, and the mean diameter “Mean” represents the mean value of the maximum diameter and the height. This evaluation was conducted on all the rats (8 or 9 rats) of each of the groups, and the mean value of each of the groups was calculated. The administration of 0.1 mg/5 mL of a suspension of Compound 2 to the cerebral aneurysm model was started on the day of the surgery (Day 0) at a dose of 5 mL/kg, and forced oral administration was conducted once a day until 26 days after surgery (Day 26). The size of cerebral aneurysm was measured by using the protocol of Example 1. […] The size of cerebral aneurysm was measured by using the protocol of Example 1. […] The size of cerebral aneurysm was measured by using the protocol of Example 1.

Series [1] can be described thus: Influences on blood pressure and heart rate of rats (tail-cuff method). The settings on record: 0.03 or 0.1 mg/kg oral once a day, Day 1 to Day 27; measured Day 28, without anesthesia; FIG. 7A and FIG. 7B. Here is the method: Immediately before dissecting rats 28 days after surgery (Day 28) as described in the section (1) of Example 1, blood pressure and heart rate of each of rats were measured noninvasively without anesthesia by a tail-cuff method. The measurement was conducted by using a noninvasive blood pressure measuring device for rats and mice BP-98A (Softron). The measurement was conducted three times per rat, and the mean value was used for calculating the mean value of all rats in each of the groups. No influence of the administration of Compound 1 on any blood pressure (SBP: systolic blood pressure, MBP: mean blood pressure, DBP: diastolic blood pressure) or heart rate was observed.

The values that follow come from patent publication US9629834B2, “Medicinal composition for inhibiting formation and/or enlargement of cerebral aneurysm or shrinking same” (KYOTO UNIVERSITY, priority 2013, dated 2017).

For the compound `C[C@H](Oc1ccc(-c2nc(-c3ccc4[nH]cnc4c3)no2)cc1C(F)(F)F)C(F)(F)F.Cl` [Compound 1, 5-{5-[3-(trifluoromethyl)-4-{[(2S)-1,1,1-trifluoropropan-2-yl]oxy}phenyl]-1,2,4-oxadiazol-3-yl}-1H-benzimidazole hydrochloride], the “expression of MCP-1 in cerebral aneurysm walls” value with MCP-1 (0.03 mg/kg oral once a day) is “suppressed as compared to the group without being administered a drug”. Further, the “expression of MCP-1 in cerebral aneurysm walls” value in the series with MCP-1 (0.1 mg/kg oral once a day) was “suppressed as compared to the group without being administered a drug”. Also, the “number of macrophages infiltrating cerebral aneurysm walls” value in the series with macrophages is given as “decreased the number of macrophages at the site where cerebral aneurysm was induced”. Also, the “formation of cerebral aneurysm (size: Maximum, Height, Mean)” value in the series on cerebral aneurysm model is “inhibited the formation of cerebral aneurysm”. Besides, in series [1], the “influence on blood pressure (SBP, MBP, DBP)” value is on record as “No influence” and the “influence on heart rate” value is reported as “No influence”.
